In BigSolDB 2.1:

Cc1[nH]nc2cc([N+](=O)[O-])ccc12
solubility (mole fraction)
Conditions	in DMF	in THF	in acetone	in acetonitrile	in ethanol	in ethyl acetate	in n-propanol	in water
278.15 K	0.149	0.0579	0.0251	0.0093	0.0042	0.016	0.0051	2.1e-05
283.15 K	0.161	0.0615	0.0295	0.0109	0.0051	0.0183	0.0061	2.7e-05
288.15 K	0.177	0.0671	0.0336	0.0123	0.0059	0.021	0.0073	3.6e-05
293.15 K	0.195	0.0726	0.0382	0.0139	0.007	0.0232	0.0084	4.71e-05
298.15 K	0.215	0.0781	0.0433	0.0156	0.0083	0.0255	0.0096	6.31e-05
303.15 K	0.236	0.0845	0.0481	0.0174	0.01	0.0295	0.0108	8.01e-05
308.15 K	0.259	0.0903	0.0538	0.019	0.012	0.0328	0.012	9.91e-05
313.15 K	0.283	0.097	0.0595	0.0206	0.014	0.0363	0.0136	0.000123
318.15 K	0.309	0.105	0.0661	0.0222	0.0164	0.0394	0.0155	0.000147
323.15 K	0.337	0.113	0.0738	0.0239	0.0194	0.043	0.0176	0.000179
328.15 K	0.371	0.123	0.0829	0.0254	0.0227	0.0456	0.0204	0.000218
